Experimental data: ChEMBL document CHEMBL2086226, “Synthesis of paclitaxel-BGL conjugates” (Bioorg Med Chem, 2012)
Calls of active or inactive are those of the source. The rule behind the calls is not given here.

Key:
[1] = Octanol-water partition coefficient, log P of the compound; format: physicochemical
A549 = test: Antitumor activity against human A549 cells xenografted in nude BALB/c mouse assessed as tumor growth inhibition at 3.51 umol/kg, ip administered on day 1, 4 and 7 post-inoculation measured up to 14 days; format: functional, organism-based

| logP [1] | Structure (SMILES) | growth inhibition (GI) (A549) |
| --- | --- | --- |
| 2.26 | CC(=O)O[C@H]1C(=O)[C@@]2(C)[C@H]([C@H](OC(=O)c3ccccc3)[C@]3(O)C[C@H](OC(=O)[C@H](OC(=O)CCC(=O)OC(COC(CO)CO)COC(CO)CO)[C@@H](NC(=O)c4ccccc4)c4ccccc4)C(C)=C1C3(C)C)[C@]1(OC(C)=O)CO[C@@H]1C[C@@H]2O | – |
| 1.46 | CC(=O)O[C@H]1C(=O)[C@@]2(C)[C@H]([C@H](OC(=O)c3ccccc3)[C@]3(O)C[C@H](OC(=O)[C@H](O)[C@@H](NC(=O)CCC(=O)OC(COC(CO)CO)COC(CO)CO)c4ccccc4)C(C)=C1C3(C)C)[C@]1(OC(C)=O)CO[C@@H]1C[C@@H]2O | Active |
| 1.99 | CC(=O)O[C@H]1C(=O)[C@]2(C)[C@@H](OC(=O)CCC(=O)OC(COC(CO)CO)COC(CO)CO)C[C@H]3OC[C@@]3(OC(C)=O)[C@H]2[C@H](OC(=O)c2ccccc2)[C@]2(O)C[C@H](OC(=O)[C@H](O)[C@@H](NC(=O)c3ccccc3)c3ccccc3)C(C)=C1C2(C)C | – |
| 2.25 | CC(=O)O[C@H]1C(=O)[C@@]2(C)[C@H]([C@H](OC(=O)c3ccccc3)[C@]3(O)C[C@H](OC(=O)[C@H](O)[C@@H](NC(=O)c4ccccc4)c4ccccc4)C(C)=C1C3(C)C)[C@]1(OC(C)=O)CO[C@@H]1C[C@@H]2O [PACLITAXEL] | Active |
